Measurements reported in patent US20120107277A1, “USE OF THE COMBINATION OF TERIFLUNOMIDE AND INTERFERON BETA FOR TREATING MULTIPLE SCLEROSIS” (SANOFI-AVENTIS U.S LLC, priority 2009, published 2012).

How the values were obtained:
Format in all cases: in vivo, human
[1] = test system: relapsing-remitting multiple sclerosis patient; assay: Brain MRI Gd-enhancing T1-lesions, 24-week add-on study (Example 1); settings: for Patients with >=1 Gd-enhancing T1-lesions post-baseline, No (% of patients; free of T1-Gd lesions): 24 weeks, ITT; for Relative risk reduction in the number of T1-Gd lesions compared with placebo added to IFN-beta / Relative reduction of T1-Gd lesion volume compared to placebo: 24 week; for Relative risk reduction in the number of T1-Gd lesions compared with placebo added to IFN-beta: adjusted
Description: (§1) A placebo-controlled, double-blinded, randomized, 3-parallel group stratified study was conducted in relapsing-remitting multiple sclerosis patient who were concurrently on a stable dose of interferon beta. The dose level of interferon beta was defined as follows: • Low dose: AVONEX® (interferon beta-1a) 30 mcg once a week intramuscularly, or REBIF® (interferon beta-1a) 22 mcg three times per week subcutaneously. • High dose: REBIF® 44 mcg three times per week subcutaneously, or BETASERON® (interferon beta-1b) 0.25 mg every other day subcutaneously.
(§2) Around 40 patients were treated in each treatment group (placebo: 41, 7 mg: 37, and 14 mg: 38). A third of patients in each group were treated with low dose interferon beta 1a. […] The mean age of the study population was 40.1 years. […] The base line Expanded Disability Status Scale (EDSS) score was similar between treatment groups (around 2.5).
(§3) Safety was evaluated from Treatment Emergent Adverse Event (TEAE), physical examination and laboratory data (e.g. Liver Function Test, every 2-8 weeks), ECG and abdominal ultrasound (24-weeks). Brain MRI (magnetic resonance image) activity, including T1-gadolinium (T1-Gd) with central reading were recorded every 8-week. Relapses were recorded and EDSS was performed at 24-week.

[2] = test system: relapsing-remitting multiple sclerosis patient; assay: MS relapse, 24-week add-on study (Example 1); settings: 24 weeks, ITT
Description: as §1, §2, §3

[3] = test system: relapsing-remitting multiple sclerosis patient; assay: Safety (TEAE, laboratory data), 24-week add-on study (Example 1); settings: 24 weeks
Description: as §1, §2, §3

[4] = test system: relapsing-remitting multiple sclerosis patient; assay: Brain MRI Gd-enhancing T1-lesions, 48-week double-blind treatment period (Example 2); settings: for Patients with >=1 Gd-enhancing T1-lesions post-baseline, No (% of patients; free of T1-Gd lesions): 48 weeks, ITT; for Relative risk reduction in the number of T1-Gd lesions compared with placebo added to IFN-beta / Relative reduction of T1-Gd lesion volume compared to placebo: 48 week; for Relative risk reduction in the number of T1-Gd lesions compared with placebo added to IFN-beta: adjusted
Description: as §1
(§4) Design/Methods: 86 of the 116 patients that were randomized to treatment (placebo: 41; 7 mg: 37; 14 mg: 38) for the first 6-months in Example 1 completed this 6-month period and accepted to continue medication for an additional 6-month period (placebo: 31, 7 mg: 28, 14 mg: 27). Safety was evaluated from TEAE, physical exam (every 6 weeks), laboratory data (every 6 weeks), ECG (at the close-out visit), pancreatic ultrasound (at the close-out visit) and brain MRI (at the close-out visit). Relapses were recorded and EDSS was performed every 6-weeks. Annualized relapse rates (ARR) were estimated by a Poisson model adjusted to IFN strata and to geographical regions. The following results report the entire 48-week double-blind treatment period.

[5] = test system: relapsing-remitting multiple sclerosis patient; assay: MS relapse, 48-week double-blind treatment period (Example 2)
Description: as §1, §4

[6] = test system: relapsing-remitting multiple sclerosis patient; assay: Safety (TEAE, laboratory data), 48-week double-blind treatment period (Example 2); settings: 48 weeks
Description: as §1, §4

[7] = 14 mg teriflunomide in addition to stable-dose IFN-beta, p<0.0001
[8] = 7 mg teriflunomide added to stable-dose interferon beta
[9] = 14 mg teriflunomide added to stable-dose interferon beta
[10] = 7 mg teriflunomide added to stable-dose IFN-beta
[11] = 14 mg teriflunomide added to stable-dose IFN-beta

For `C/C(O)=C(\C#N)C(=O)Nc1ccc(C(F)(F)F)cc1` [teriflunomide, (Z)-2-cyano-3-hydroxy-but-2-enoic acid-(4′-trifluoromethylphenyl)-amide], the “Patients with >=1 Gd-enhancing T1-lesions post-baseline, No (% of patients; free of T1-Gd lesions)” value ([1]; 7 mg teri + IFN-β) was 69.4%, the “Relative risk reduction in the number of T1-Gd lesions compared with placebo added to IFN-beta” value (“Relative risk reduction in the number” for short) ([1]; 7 mg teriflunomide in addition to stable-dose IFN-beta, p=0.0009) was 82.6% and the “Relative reduction of T1-Gd lesion volume compared to placebo” value (from here on “Relative reduction”) ([1]; 7 mg teriflunomide in addition to stable-dose IFN-beta, p=0.1931) was 67.6%. For the same compound, the “Patients with >=1 Gd-enhancing T1-lesions post-baseline, No (% of patients; free of T1-Gd lesions)” value ([1]; 14 mg teri + IFN-β) was 81.6%, the “Relative risk reduction in the number” value [1, 7] was 84.4% and the “Relative reduction” value ([1]; 14 mg teriflunomide in addition to stable-dose IFN-beta, p=0.0072) was 64.7%. The “Total number of relapses” value ([2]; 7 mg teri + IFN-β, 16.4 patient-years followed) was 5, the “Total number of relapses” value ([2]; 14 mg teri + IFN-β, 17.3 patient-years followed) was 2 and the “Proportion of patients with ALT/SGPT greater than 3xULN” value [3, 8] was 0%. For the same compound, the “Proportion of patients with TEAE due to increased ALT/SGPT” value [3, 8] was 13.5%, the “Proportion of patients with TEAE potentially related to immunosuppression (white blood cell counts, infections and infestations)” value [3, 8] was 49% and the “Upper respiratory tract infections (nasopharyngitis, sinusitis), proportion of patients” value [3, 8] was 10.8%. The “Proportion of patients with ALT/SGPT greater than 3xULN” value [3, 9] was 5.3%, the “Proportion of patients with TEAE due to increased ALT/SGPT” value [3, 9] was 28.9% and the “Proportion of patients with TEAE potentially related to immunosuppression (white blood cell counts, infections and infestations)” value [3, 9] was 50%. For the same compound, the “Upper respiratory tract infections (nasopharyngitis, sinusitis), proportion of patients” value [3, 9] was 23.7%, the “Concomitant bilirubin increase (with ALT/SGPT increase)” value ([3]; all groups, 7 mg or 14 mg teriflunomide added to stable-dose interferon beta) was “no case” and the “Patients with >=1 Gd-enhancing T1-lesions post-baseline, No (% of patients; free of T1-Gd lesions)” value ([4]; 7 mg teri + IFN-β) was 69.4%. The “Relative risk reduction in the number” value ([4]; 7 mg teriflunomide in addition to stable-dose IFN-beta, p=0.0005) was 84.6%, the “Relative reduction” value ([4]; 7 mg teriflunomide in addition to stable-dose IFN-beta, p=0.1104) was 72.1% and the “Patients with >=1 Gd-enhancing T1-lesions post-baseline, No (% of patients; free of T1-Gd lesions)” value ([4]; 14 mg teri + IFN-β) was 76.3%. The “Relative risk reduction in the number” value [4, 7] was 82.8%, the “Relative reduction” value ([4]; 14 mg teriflunomide in addition to stable-dose IFN-beta, p=0.0154) was 70.6% and the “Reduction in annualized relapse rate compared to IFN-beta” value ([5]; 7 mg teriflunomide in addition to stable-dose IFN-beta, p=0.43) was 32.6%. The “Reduction in annualized relapse rate compared to IFN-beta” value ([5]; 14 mg teriflunomide in addition to stable-dose IFN-beta, p=0.11) was 57.9%, the “Patients with ALT increased above 3ULN without concomitant increase in bilirubin (number)” value [6, 10] was 1 and the “TEAE all gastrointestinal disorders” value [6, 10] was 18.9%. For the same compound, the “TEAE all type of headaches” value [6, 10] was 5.4%, the “TEAE upper respiratory tract infections as a whole” value [6, 10] was 16.2% and the “TEAEs that led to treatment discontinuation (number)” value [6, 10] was 3. The “White blood cell counts decreases (number)” value [6, 10] was 3, the “Patients with ALT increased above 3ULN without concomitant increase in bilirubin (number)” value [6, 11] was 3 and the “TEAE all gastrointestinal disorders” value [6, 11] was 31.6%. The “TEAE all type of headaches” value [6, 11] was 18.4%, the “TEAE upper respiratory tract infections as a whole” value [6, 11] was 23.7% and the “TEAEs that led to treatment discontinuation (number)” value [6, 11] was 3. The “White blood cell counts decreases (number)” value [6, 11] was 4.
